Source: ChEMBL document CHEMBL4665641, “Lead optimization and efficacy evaluation of quinazoline-based BET family inhibitors for potential treatment of cancer and inflammatory diseases” (Bioorg Med Chem Lett, 2019)
The source made the active and inactive calls. No cut-off for these calls is given here.

How the values were obtained:
[1] = system: Kasumi 1; test: Antitumor activity against human Kasumi-1 cells xenografted in CB17 SCID mouse assessed as inhibition of tumor growth at 10 mg/kg, po QD for 25 days; format: functional; conditions: Kasumi 1, po, 600 h, time 25 day, read-out: TGI
[2] = system: Kasumi 1; test: Antitumor activity against human Kasumi-1 cells xenografted in CB17 SCID mouse assessed as tumor weight at 40 mg/kg, po QD for 25 days (reference value: 2.57 +/-0.27 g); format: functional; conditions: time 25 day
[3] = system: Kasumi 1; test: Antitumor activity against human Kasumi-1 cells xenografted in CB17 SCID mouse assessed as inhibition of tumor growth at 40 mg/kg, po QD for 25 days; format: functional; conditions: Kasumi 1, po, 600 h, time 25 day, read-out: TGI
[4] = Oral bioavailability in CD-1 mouse at 10 mg/kg; format: ADME, organism-based; conditions: mouse, in vivo, 10 mg/kg
[5] = Half life in CD-1 mouse at 2 mg/kg, iv; format: ADME, organism-based; conditions: in vivo
[6] = Half life in CD-1 mouse at 10 mg/kg, po; format: ADME, organism-based; conditions: in vivo
[7] = Stability in human liver microsomes assessed as half life; format: ADME, Microsome
[8] = Toxicity in CD1 mouse assessed as weight loss at 50 to 100 mg/kg, po administered once daily for 5 days and observed for 5 days after last dose; format: organism-based; conditions: in vivo, 120 h, dose 50-100 mg/kg, time 5 day
[9] = Toxicity in CD1 mouse assessed as clinical abnormalities at 50 to 100 mg/kg, po administered once daily for 5 days and observed for 5 days after last dose; format: organism-based; conditions: in vivo, 120 h, dose 50-100 mg/kg, time 5 day
[10] = Toxicity in CD1 mouse assessed as mortality at 50 to 100 mg/kg, po administered once daily for 5 days and observed for 5 days after last dose; format: organism-based; conditions: in vivo, 120 h, dose 50-100 mg/kg, time 5 day
[11] = Apparent permeability across apical to basolateral side in human Caco2 cells; format: ADME, cell-based; conditions: caco-2
[12] = molecular target: CYP3A4 (Homo sapiens, UniProt P08684); test: Inhibition of human CYP3A4 at 10 uM using testosterone as substrate relative to control; format: ADME; conditions: probe testosterone
[13] = molecular target: T1, CYP1A2 (Homo sapiens, UniProt P05177); test: Inhibition of human CYP1A2 at 10 uM relative to control; format: ADME
T1 sequence (P05177 whole entry): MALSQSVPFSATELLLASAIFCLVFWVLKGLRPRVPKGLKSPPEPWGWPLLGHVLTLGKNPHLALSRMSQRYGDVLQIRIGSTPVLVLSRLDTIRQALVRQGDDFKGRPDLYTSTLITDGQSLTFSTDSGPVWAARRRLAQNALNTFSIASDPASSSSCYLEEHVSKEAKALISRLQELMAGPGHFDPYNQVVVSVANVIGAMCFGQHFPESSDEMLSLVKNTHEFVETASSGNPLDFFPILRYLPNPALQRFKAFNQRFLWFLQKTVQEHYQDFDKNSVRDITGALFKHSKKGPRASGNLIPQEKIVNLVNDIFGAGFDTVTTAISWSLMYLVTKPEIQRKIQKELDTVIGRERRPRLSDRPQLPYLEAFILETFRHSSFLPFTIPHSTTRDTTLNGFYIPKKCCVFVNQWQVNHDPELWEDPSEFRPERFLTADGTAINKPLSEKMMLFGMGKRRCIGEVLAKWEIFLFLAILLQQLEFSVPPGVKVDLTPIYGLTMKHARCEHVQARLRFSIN

[14] = molecular target: CYP2D6 (Homo sapiens, UniProt P10635); test: Inhibition of human CYP2D6 at 10 uM relative to control; format: ADME
[15] = molecular target: Cytochrome P450 2C9 (Homo sapiens, UniProt P11712); test: Inhibition of human CYP2C9 at […]; format: ADME; conditions: dose 2.1 µM
[16] = system: Kasumi 1; test: Antitumor activity against human Kasumi-1 cells xenografted in CB17 SCID mouse assessed as tumor volume at 10 mg/kg, po QD for 25 days (reference value: 2189 +/- 604 mm3); format: functional; conditions: time 25 day
[17] = Drug uptake in tumor tissue of CB17 SCID mouse xenografted with human Kasumi-1 cells at 10 mg/kg, po QD for 25 days and measured after 24 hrs post last dose; format: ADME, organism-based, Neoplasm; conditions: time 25 day, read-out: Drug uptake
[18] = system: Mus musculus; test: Antiarthritic activity in collagen/complete freund's adjuvant-induced DBA/1 mouse model of arthritis assessed as reduction in joint inflammation at 50 mg/kg, po administered via gavage starting from day 21 to day 41 post collagen/CFA challenge and measured on day 42 by H&E staining based analysis; format: functional, organism-based; conditions: time 21.0 day
[19] = system: Mus musculus; test: Antiinflammatory activity in collagen/complete freund's adjuvant-induced arthritis DBA/1 mouse model assessed as IL-6 level in rear right paw at 50 mg/kg, po administered via gavage starting from day 21 to day 41 post collagen/CFA challenge and measured on day 42 measured per mg protein (reference value: 180.7 pg); format: functional; conditions: time 21 day
[20] = system: Mus musculus; test: Antiinflammatory activity in collagen/complete freund's adjuvant-induced arthritis DBA/1 mouse model assessed as TNF-alpha level in rear right paw at 50 mg/kg, po administered via gavage starting from day 21 to day 41 post collagen/CFA challenge and measured on day 42 measured per mg protein (reference value: 0.88 pg); format: functional; conditions: time 21 day
[21] = system: Kasumi 1; test: Antitumor activity against human Kasumi-1 cells xenografted in CB17 SCID mouse assessed as tumor weight at 10 mg/kg, po QD for 29 days (reference value: 2.1+/- 0.3 g); format: functional; conditions: time 29 day
[22] = system: Mus musculus; test: Antiarthritic activity in collagen/complete freund's adjuvant-induced arthritis DBA/1 mouse model assessed as reduction in inflammatory symptoms at 50 mg/kg, po administered via gavage once daily starting from day 21 to day 41 post collagen/CFA challenge and measured from day 13 to 42; format: functional, organism-based; conditions: time 21.0 day
[23] = system: Mus musculus; test: Antiinflammatory activity in collagen/complete freund's adjuvant-induced arthritis DBA/1 mouse model assessed as IFN-gamma level in rear right paw at 50 mg/kg, po administered via gavage starting from day 21 to day 41 post collagen/CFA challenge and measured on day 42 measured per mg protein (reference value: 0.78 pg); format: functional; conditions: time 21 day
[24] = molecular target: T2, Bromodomain-containing protein 4 (Homo sapiens, UniProt O60885); test: Inhibition of human full-length recombinant N-terminal His-tagged BRD4 (2 to 1362 residues) expressed in Sf9 cells using histone H4 peptide containing acetylated lysine residues as substrate preincubated with enzyme for 30 mins followed by incubation with substrate for 30 mins by Alphascreen assay […]
[25] = molecular target: T3, Bromodomain-containing protein 3 (Homo sapiens, UniProt Q15059); test: Binding affinity to human partial length BRD3 (BD1) (P24 to E144 residues) expressed in bacterial expression system by BROMOscan assay
[26] = molecular target: T3, Bromodomain-containing protein 3; test: Binding affinity to human partial length BRD3 (BD1,2) (P24 to P416 residues) expressed in bacterial expression system by BROMOscan assay
[27] = molecular target: T2, Bromodomain-containing protein 4; test: Binding affinity to human partial length BRD4 (BD1) (N44 to E168 residues) expressed in bacterial expression system by BROMOscan assay
[28] = molecular target: T4, Bromodomain testis-specific protein (Homo sapiens, UniProt Q58F21); test: Binding affinity to human partial length BRDT (BD2) (K250 to E382 residues) expressed in bacterial expression system by BROMOscan assay
[29] = molecular target: T4, Bromodomain testis-specific protein; test: Binding affinity to human partial length BRDT (BD1,2) (N21 to E382 residues) expressed in bacterial expression system by BROMOscan assay

T3 sequence (Q15059 whole entry, the tested form may be a part): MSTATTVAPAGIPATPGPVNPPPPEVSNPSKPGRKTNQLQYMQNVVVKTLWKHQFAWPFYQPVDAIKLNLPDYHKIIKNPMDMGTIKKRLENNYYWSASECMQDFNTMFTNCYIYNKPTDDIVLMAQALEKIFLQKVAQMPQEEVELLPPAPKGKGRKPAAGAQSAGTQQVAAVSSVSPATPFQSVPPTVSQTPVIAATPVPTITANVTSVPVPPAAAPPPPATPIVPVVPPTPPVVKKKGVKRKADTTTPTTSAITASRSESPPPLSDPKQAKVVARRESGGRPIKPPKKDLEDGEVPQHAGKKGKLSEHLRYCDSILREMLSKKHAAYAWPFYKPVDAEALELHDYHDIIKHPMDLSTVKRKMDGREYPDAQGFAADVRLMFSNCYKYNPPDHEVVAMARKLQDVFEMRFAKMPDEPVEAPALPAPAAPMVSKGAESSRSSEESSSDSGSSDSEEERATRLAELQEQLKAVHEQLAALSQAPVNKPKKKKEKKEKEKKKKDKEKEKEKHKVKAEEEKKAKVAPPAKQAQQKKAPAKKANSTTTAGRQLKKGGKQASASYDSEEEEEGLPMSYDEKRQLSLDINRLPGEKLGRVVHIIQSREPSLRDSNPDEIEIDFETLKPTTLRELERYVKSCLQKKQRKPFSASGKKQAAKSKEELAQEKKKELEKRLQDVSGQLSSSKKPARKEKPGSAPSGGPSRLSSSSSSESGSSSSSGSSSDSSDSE
CYP3A4, sequence (P08684 whole entry): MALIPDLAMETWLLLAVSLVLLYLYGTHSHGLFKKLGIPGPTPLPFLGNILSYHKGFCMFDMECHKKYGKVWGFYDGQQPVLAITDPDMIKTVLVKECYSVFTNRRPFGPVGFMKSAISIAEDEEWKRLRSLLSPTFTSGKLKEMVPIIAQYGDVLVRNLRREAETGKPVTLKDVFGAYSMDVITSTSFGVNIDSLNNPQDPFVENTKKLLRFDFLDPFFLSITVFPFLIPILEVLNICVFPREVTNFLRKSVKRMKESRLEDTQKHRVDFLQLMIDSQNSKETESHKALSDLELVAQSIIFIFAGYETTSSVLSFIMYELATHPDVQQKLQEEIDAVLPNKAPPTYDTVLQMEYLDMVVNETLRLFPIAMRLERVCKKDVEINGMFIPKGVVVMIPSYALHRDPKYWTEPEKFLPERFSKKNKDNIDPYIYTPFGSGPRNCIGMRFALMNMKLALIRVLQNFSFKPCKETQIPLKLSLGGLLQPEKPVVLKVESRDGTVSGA
CYP2D6, sequence (P10635 whole entry): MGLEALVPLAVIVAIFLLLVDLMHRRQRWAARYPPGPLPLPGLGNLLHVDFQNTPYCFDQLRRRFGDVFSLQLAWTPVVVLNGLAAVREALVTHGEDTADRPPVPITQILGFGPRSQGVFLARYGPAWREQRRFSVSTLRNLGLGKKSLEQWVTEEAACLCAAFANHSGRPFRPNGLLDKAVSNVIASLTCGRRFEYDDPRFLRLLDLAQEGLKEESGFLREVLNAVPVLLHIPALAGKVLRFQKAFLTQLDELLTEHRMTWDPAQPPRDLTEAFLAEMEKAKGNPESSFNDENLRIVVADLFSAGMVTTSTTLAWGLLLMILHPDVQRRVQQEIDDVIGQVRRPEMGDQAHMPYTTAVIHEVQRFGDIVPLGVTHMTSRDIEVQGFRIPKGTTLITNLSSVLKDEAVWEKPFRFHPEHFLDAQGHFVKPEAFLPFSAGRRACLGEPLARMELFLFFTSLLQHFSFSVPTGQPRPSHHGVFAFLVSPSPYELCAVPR
Cytochrome P450 2C9, sequence (P11712 whole entry): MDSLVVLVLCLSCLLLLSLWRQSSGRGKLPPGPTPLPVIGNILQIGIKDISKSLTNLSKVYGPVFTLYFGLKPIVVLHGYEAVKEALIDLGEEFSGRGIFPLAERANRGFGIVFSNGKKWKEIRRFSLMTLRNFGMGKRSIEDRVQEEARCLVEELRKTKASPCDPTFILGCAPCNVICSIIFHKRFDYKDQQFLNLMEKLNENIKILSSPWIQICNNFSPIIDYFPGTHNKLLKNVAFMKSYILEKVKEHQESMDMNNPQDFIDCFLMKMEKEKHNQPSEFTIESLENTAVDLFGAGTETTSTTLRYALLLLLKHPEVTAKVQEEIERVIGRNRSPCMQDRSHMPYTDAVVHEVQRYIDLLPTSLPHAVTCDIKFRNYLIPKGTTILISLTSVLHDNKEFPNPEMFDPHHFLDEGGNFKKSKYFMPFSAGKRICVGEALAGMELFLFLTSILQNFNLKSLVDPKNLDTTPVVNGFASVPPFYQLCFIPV

Work on Cc1noc(C)c1-c1ccc2nc(-c3cnn(CC(C)(C)O)c3)nc(N3CCOC[C@@H]3c3ccccc3)c2c1 yielded an inhibition in vivo at 10 mg/kg [1] of 41.4%, an Activity [2] of 0.04 g and an inhibition in vivo at 40 mg/kg [3] of 98.6%. The F [4] was 75%, the half-life [5] was 1.7 h and the half-life [6] was 1.7 h. For the same compound, the half-life [7] was 1.7 h, the Activity [8] was “Non-Toxic” and the Activity [9] was “Non-Toxic”. For the same compound, the Activity [10] was “Non-Toxic”, the Papp [11] was 18.2 10^-6 cm/s and the inhibition at 10 µM [12] was less than 50%. The inhibition at 10 µM [13] was less than 50%, the inhibition at 10 µM [14] was less than 50% and the INH [15] was “Active”. For the same compound, the Activity [16] was 1303 mm3, the concentration at 600 h [17] was 56 ng/g and the Activity [18] was “Active”. The Activity [19] was 21.62 pg, the Activity [20] was 0.46 pg and the Activity [21] was 1.22 g. For the same compound, the Activity [22] was “Active”, the Activity [23] was 1.29 pg and the IC50 [24] was 14 nM. The Kd [25] was 11 nM, the Kd [26] was 29 nM and the Kd [27] was 17 nM. It also gave a Kd [28] of 160 nM and a Kd [29] of 170 nM.
